Results as given in US6653081B2, “Methods for monitoring antiretroviral therapy and guiding therapeutic decision in the treatment of HIV/AIDS” (ViroLogic, Inc., priority 2000, dated 2003).
Entries after “also recorded” stand apart in the source; their conditions may differ.

What was measured:
RTV-I135T/V245T = assay: Phenotypic susceptibility assay, RTV-I135T/V245T; format: cell-based, HIV-1; details: site-directed I135T + V245T
Excerpt: (§1) The resistance test vectors containing a functional luciferase gene cassette were constructed and host cells were transfected with the resistance test vector DNA. The resistant test vectors contained patient-derived reverse transcriptase and protease sequences that were either susceptible or resistant to the antiretroviral agents, such as nucleoside reverse transcriptase inhibitors, (NRTIs) non-nucleoside reverse transcriptase inhibitors […] protease inhibitors. The resistance test vector viral particles produced by transfecting the resistance test vector DNA into host cells, either in the presence or absence of PRIs, were used to infect target host cells grown either in the absence of NRTIs or NNRTIs, or in the presence of increasing concentrations of the drug. The amount of luciferase activity produced in infected target host cells in the presence of varying concentrations of drug was compared to the amount of luciferase produced in infected target host cells in the absence of drug. “Drug resistance” was measured as the amount of drug required to inhibit by 50% the luciferase activity detected in the absence of drug (inhibitory concentration 50%, IC50). The IC50 values were determined by plotting percent drug inhibition vs. log10 drug concentration. Stimulation of viral replication was measured as the percent increase in luciferase activity detected when infection occurs in the presence of drug as compared to in the absence of drug.
(§2) Host cells were seeded in 10-cm-diameter dishes and were transfected several days after plating with resistance test vector plasmid DNA and the envelope expression vector. Transfections were performed using a calcium-phosphate precipitation procedure. The cell culture media containing the DNA precipitate was replaced with fresh medium, from one to 24 hours, after transfection. Cell culture media containing resistance test vector viral particles was harvested one to four days after transfection and was passed through a […] filter before being used to infect target host cells, or being stored at −80° C. HIV capsid protein (p24) levels in the harvested cell culture media were determined by an EIA method as described by the manufacturer (SAIC; Frederick, Md.). Before infection, target cells (293 and 293/T) were plated in cell culture media. Control infections were performed using cell culture media from mock transfections (no DNA) or transfections containing the resistance test vector plasmid DNA without the envelope expression plasmid. One to three or more days after infection, the media was removed and cell lysis buffer (Promega) was added to each well. Cell lysates were assayed for luciferase activity (FIG. 3). The inhibitory effect of the drug was determined using the following equation:
(§3) % luciferase inhibition=1−(RLUluc[drug]÷RLUluc)×100
(§4) where RLUluc [drug] is the Relative Light Unit of luciferase activity in infected cells in the presence of drug, and RLUluc is the Relative Light Unit of luciferase activity in infected cells in the absence of drug. IC50values were obtained from the sigmoidal curves that were generated from the data by plotting the percent inhibition of luciferase activity vs. the log10 drug concentration. The percent luciferase stimulation is the negative of the % inhibition calculated using the formula above.
(§5) A resistance test vector containing two mutations, I135T and V245T (RTV-I135T/V245T) was constructed and tested in the phenotypic assay described earlier. The results were compared to those determined using a genetically defined resistance test vector that was wild type at positions 135 and 245. We determined the pattern of phenotypic susceptibility to the NNRTIs, delavirdine, nevirapine and efavirenz, in RTV-I135T/V245T.

[1] = tested on: RTV-1033-3/283L/284R/286T/293V/297E; assay: Phenotypic susceptibility assay, RTV-1033-3/283L/284R/286T/293V/297E; format: cell-based, HIV; details: RTV-1033-3 with L283I, R284K, T286A, V293I and E297K reverted
Excerpt: as §1, §2, §3, §4
(§6) A resistance test vector containing all of the mutations present in RTV-1033-3 except for L283I, R284K, T286A, V293I and E297K (RTV-1033-3/283L/284R/286T/293V/297E) was constructed and tested using the phenotypic assay described earlier. The results were compared to those determined using the parent RTV-1033-3. We determined the pattern of phenotypic susceptibility to the NNRTIs, delavirdine, nevirapine and efavirenz, in the reverted vector, RTV-1033-3/283L/284R/286T/293V/297E.

RTV-K103N = assay: Phenotypic susceptibility assay, RTV-K103N; format: cell-based, HIV-1; details: site-directed K103N alone
Excerpt: as §1, §2, §3, §4
as §5, with “a single mutation, K103N, (RTV-K103N)” for “two mutations, I135T and V245T (RTV-I135T/V245T)”, “103.” for “135 and 245.”, “RTV-K103N.” for “RTV-I135T/V245T.”

RTV-013415 = assay: Phenotypic susceptibility assay, RTV-013415; format: cell-based, HIV; details: patient 013415; for decrease in susceptibility: V245M with multiple other mutations
Excerpt: as §1, §2, §3, §4
A resistance test vector was constructed as described in Example 1 from a virus sample obtained from patient 013415. The prior and current treatment regimens are unknown. Isolation of viral RNA and RT/PCR was used to generate a patient derived segment (PDS) that comprised viral sequences coding for all of PR and aa 1-313 of RT. The PDS were inserted into an indicator gene viral vector to generate a resistance test vector designated RTV-013415. RTV-013415 was then tested in a phenotypic assay to determine accurately and quantitatively the level of susceptibility to a panel of anti-retroviral drugs. […]

[2] = tested on: RTV-1033-3/106V/189V/227F; assay: Phenotypic susceptibility assay, RTV-1033-3/106V/189V/227F; format: cell-based, HIV; details: RTV-1033-3 with V106A, V189L and F227L reverted
Excerpt: as §1, §2, §3, §4
as §6, with “V106A, V189L” for “L283I, R284K, T286A, V293I”, “F227L (RTV-1033-3/106V/189V/227F)” for “E297K (RTV-1033-3/283L/284R/286T/293V/297E)”, “RTV-1033-3/106V/189V/227F.” for “RTV-1033-3/283L/284R/286T/293V/297E.”

RTV-V245E = assay: Phenotypic susceptibility assay, RTV-V245E; format: cell-based, HIV-1; details: site-directed V245E alone
Excerpt: as §1, §2, §3, §4
as §5, with “a single mutation, V245E, (RTV-V245E)” for “two mutations, I135T and V245T (RTV-I135T/V245T)”, “position” for “positions 135 and”, “[…].” for “RTV-I135T/V245T.”

Compound	drug-dependent stimulation of viral replication (RTV-I135T/V245T)	reductions in susceptibility compared to wild type control RTV (RTV-I135T/V245T)	drug-dependent stimulation of viral replication [1]	reductions in susceptibility compared to wild type control RTV [1]	drug-dependent stimulation of viral replication (RTV-K103N)	reductions in susceptibility compared to wild type control RTV (RTV-K103N)	drug-dependent stimulation of viral replication (RTV-013415)	decrease in susceptibility (RTV-013415)	drug-dependent stimulation of viral replication [2]	reductions in susceptibility compared to wild type control RTV [2]	drug-dependent stimulation of viral replication (RTV-V245E)	reductions in susceptibility compared to wild type control RTV (RTV-V245E)
CC(C)Nc1cccnc1N1CCN(C(=O)c2cc3cc(NS(C)(=O)=O)ccc3[nH]2)CC1 [delavirdine]	~10%	2.5 fold	no drug-dependent stimulation	16 fold	no drug-dependent stimulation	87 fold	~30%	> 250 fold	~35%	2.7 fold	no drug-dependent stimulation	no reductions; also recorded: no significant reduction
O=C1Nc2ccc(Cl)cc2[C@@](C#CC2CC2)(C(F)(F)F)O1 [efavirenz]	no drug-dependent stimulation	2.4 fold	no drug-dependent stimulation	5 fold	no drug-dependent stimulation	29 fold	~20%	> 450 fold	~30%	2 fold	no drug-dependent stimulation	no reductions; also recorded: no significant reduction
Cc1ccnc2c1NC(=O)c1cccnc1N2C1CC1 [nevirapine]	~10%	4 fold	no drug-dependent stimulation	144 fold	no drug-dependent stimulation	67 fold	~20%	> 600 fold	~40%	2.8 fold	no drug-dependent stimulation	no reductions; also recorded: no significant reduction
